Assays:
[1] = molecular target: T1, human recombinant sEH (Homo sapiens, UniProt P34913); assay: Cell-free sEH activity assay (fluorescence-based, PHOME substrate); format: biochemical; details: mean ± SEM, n = 3, benzoxazolone-ureas (Table 2); for sEH activity % of control at 1 μM / sEH activity % of control at 10 μM: residual activity; for IC50: cell-free assay
T1 construct: made in house; host or cells: Sf9 cells infected with recombinant baculovirus (from Dr. Bruce Hammock, UC Davis)
T1 sequence (P34913 1-555): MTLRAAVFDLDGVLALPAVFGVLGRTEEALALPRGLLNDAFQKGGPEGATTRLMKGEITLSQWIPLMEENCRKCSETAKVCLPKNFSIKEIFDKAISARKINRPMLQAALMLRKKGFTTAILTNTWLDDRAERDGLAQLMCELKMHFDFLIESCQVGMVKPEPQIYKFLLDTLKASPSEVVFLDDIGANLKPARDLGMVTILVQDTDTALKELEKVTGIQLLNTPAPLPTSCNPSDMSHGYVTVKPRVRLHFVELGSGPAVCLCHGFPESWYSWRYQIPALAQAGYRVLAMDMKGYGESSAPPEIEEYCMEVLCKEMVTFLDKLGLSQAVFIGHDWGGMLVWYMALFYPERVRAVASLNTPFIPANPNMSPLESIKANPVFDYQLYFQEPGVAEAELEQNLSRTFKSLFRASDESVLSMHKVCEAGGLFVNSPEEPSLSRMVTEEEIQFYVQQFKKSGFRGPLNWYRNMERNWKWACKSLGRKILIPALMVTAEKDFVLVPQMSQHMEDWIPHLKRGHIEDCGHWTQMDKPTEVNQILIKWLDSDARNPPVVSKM
Source text: Inspired by the reported crystallographic screening studies,[12],[13],[15] a series of aryl amide (12, 15–21) or urea (31–39) derivatives with a benzoxazolone head group were synthesized and assessed for inhibition of human recombinant sEH in a cell-free activity assay[27] (Tables 1 and 2). […] Consequently, compounds in which the amide group is attached to the benzoxazolone ring through NH could outperform their direct reversed analogues by more favorable interactions in the central pocket of sEH. In addition, simple methylation of the benzoxazolone NH in 17–18 engendered noticeable differences in sEH inhibition relative to the unmethylated counterparts 15–16, implying that a free NH with H-bond donor property at this location is also important for the observed potency. Subsequently, the positioning of the amide group at the 5-position of the benzoxazolone ring also retained the inhibitory activity.
Human recombinant sEH was expressed and purified as published before.[31] Briefly, Sf9 cells were infected with a recombinant baculovirus (obtained from Dr. Bruce Hammock, University of California, Davis, CA). Following 72 h of transfection, the cells were centrifuged and then sonicated (3 × 10 s at 4 °C) in lysis buffer comprising glycerol (10%), NaHPO4 (50 mM, pH 8), leupeptin (10 μg/mL), NaCl (300 mM), phenylmethanesulfonyl fluoride (1 mM), EDTA (1 mM), and soybean trypsin inhibitor (60 μg/mL). After centrifugation at 100,000g (60 min, 4 °C), the obtained supernatants were subjected to a benzylthio-sepharose-affinity chromatography and eluted with 4-fluorochalcone oxide in PBS containing 1 mM DTT and 1 mM EDTA for purification of sEH. The enzyme was dialyzed and concentrated (Millipore Amicon-Ultra-15 centrifugal filter), and the solution was further assayed for total protein content by a protein detection kit (Bio-Rad Laboratories, Munich, Germany). The epoxide hydrolase activity was measured using a fluorescence-based assay, as reported before.[27] In brief, sEH was diluted in Tris buffer (25 mM, pH 7) containing BSA (0.1 mg/mL) to a suitable enzyme concentration and pretreated with test compounds or 0.1% DMSO as vehicle for 10 min at room temperature. To start the reaction, 50 μM of the PHOME substrate (3-phenyl-cyano(6-methoxy-2-naphthalenyl)methyl ester-2-oxiraneacetic acid), a nonfluorescent compound that is enzymatically converted by sEH into fluorescent 6-methoxy-naphtaldehyde, was added at RT. The reaction was stopped by addition of ZnSO4 (200 mM) after 60 min, and fluorescence was measured (λem 465 nm, λex 330 nm) by employing a NOVOstar microplate reader (BMG LABTECH GmbH, Ortenberg, Germany). If required, the potential fluorescence of test compounds was subtracted from the readout.

[2] = system: monocytes; assay: Cytotoxic activity in monocytes (MTT, metabolic activity after 24 h); format: cell-based, human; details: metabolic activity (MTT) after 24 h, data not shown in main text (Figure S52)
Source text: The benzyl group appears as a frequently recurring chemical fragment in the architecture of amide or urea-type sEH inhibitors.[4] Therefore, we extracted this common fragment and combined it with benzoxazolone using a urea backbone with the aim of improving a sEH inhibitory potency in the newly designed analogues (Table 2). […] This implies that voluminous substituents at this position are better accommodated at the binding site. […] Taken together, 2- or appropriate 2,4-disubstitution patterns govern potent sEH inhibition in this series. Overall, the preliminary SAR in this work indicated a new favorable structural feature at the right- and left-hand side of the compounds to achieve potent sEH inhibition. Another aspect of characterizing the compounds is determining their cytotoxic activity; for this purpose, we used monocytes due to their high expression of sEH. By applying 33 and 38 to monocytes and measuring the metabolic activity after 24 h, we could exclude cytotoxic activity up to concentrations of 1 μM (data not shown).
The cytotoxic activities of compounds were assessed as previously described.[29] […] The absorbance was determined at 570 nm using a Multiskan Spectrum microplate reader (Thermo Fisher Scientific, Schwerte, Germany). […]

Compound	sEH activity % of control at 1 μM [1]	sEH activity % of control at 10 μM [1]	IC50 [1]	concentration up to which cytotoxic activity is excluded [2]	melting point
O=C(NCc1ccccc1OC(F)(F)F)Nc1ccc2oc(=O)[nH]c2c1 [Compound 33, 3-(2-Oxo-2,3-dihydro-1,3-benzoxazol-5-yl)-1-{[2-(trifluoromethoxy)phenyl]methyl}urea]	1.9 ± 3.2 % of control	6.8 ± 5.9 % of control	0.39 ± 0.1 nM	> 1 µM	–
O=C(NCc1ccc(Cl)cc1Cl)Nc1ccc2oc(=O)[nH]c2c1 [Compound 38, 1-[(2,4-Dichlorophenyl)methyl]-3-(2-oxo-2,3-dihydro-1,3-benzoxazol-5-yl)urea]	0.0 ± 0.0 % of control	0.0 ± 0.0 % of control	0.7 ± 0.08 nM	> 1 µM	260.9 °C (dec.)
